Where no end group is shown, it is not given here. The star is where a group is joined. ξ: configuration not given here. Lipoyl(6ξ) = O=C(CCCCC1CCSS1)*
Experiments:
[1] = test system: 16HBE cells; assay: In vitro transfection, Metridia luciferase assay in 16HBE cells; type: cell-based, human
[2] = test system: BEAS-2B cells; assay: In vitro transfection, Metridia luciferase assay in BEAS-2B cells; type: cell-based, human; conditions: for pDNA transfection efficiency of P704 ternary complex (in words): MetLuc pDNA, P704 50 (w/w), FIG. 14a
Experimental: (§1) Preparation of IVT-mRNA/pDNA containing binary and ternary complexes: Stock solutions of P704 (5 mg/ml) and synthetic compound (1 mg/ml) were prepared in nuclease-free water (NF water) and stored at 4° C. P704 based binary complexes (P704/IVT-mRNA or P704/pDNA) were prepared by mixing equal volumes of diluted P704 stock solution with IVT-mRNA or pDNA solution at the desired concentration in 2× Tyrode's solution. Ternary complexes were generated via two-steps incubation. Briefly, P704 solutions at certain concentration (defined as weight/weight (w/w) ratio between P704 and nucleic acids) in NF-water were mixed with equal volume of synthetic compound solution at specific concentration (defined as N/P ratio, namely the […] between nitrogen residues in synthetic compound and nucleic acids phosphate groups). After 20 min incubation at room temperature (RT), same volumes of nucleic acid (IVT-mRNA or pDNA) solution in NF-water were added to the above P704/synthetic compound solution and mixed gently by pipetting up and down several times. Subsequently, complexes were incubated for another 20 min at RT prior to further use. IVT-mRNA or pDNA solutions in NF-water were complexed with brPEI (25 kDa) at an optimum N/P ratio, the resulting complexes were served as a control polyplex. As for control lipoplex, Lipofectamine® 2000 complexes were prepared according to the manufacturer's instructions using optimum concentration. In order to prepare DOTAP/DOPE liposomes, a lipid film was formed by removing the chloroform solvent in DOTAP/DOPE mixture solution under nitrogen atmosphere. The lipid film is hydrated with NF-water to make the final concentration 10 mM DOTAP/DOPE. The DOTAP/DOPE liposome formulation was formed by mixing 250 μl of pDNA encoding for firefly luciferase and cystic fibrosis transmembrane conductance regulator (fLUC-CFTR pDNA) (150 μg) containing solution and 250 μl diluted DOTAP/DOPE solution (190 μl of 10 mM DOTAP/DOPE liposome and 60 μl NF-water). The mix solution was incubated at RT for 20 min prior to further use.
(§2) In vitro transfection: For the luciferase assay, cells were seeded at a density of 1.8×10^4/well (BEAS-2B) or 3.5×10^4/well (16HBE) in 96-well plates 24 h before transfection to reach 60-80% confluence. Following removal of growth medium, cells were rinsed with DPBS (Gibco, Germany). 170 μl of fresh serum-free OptiMEM (Gibco, Germany) were added per well, and subsequently 30 μl of IVT-mRNA or pDNA containing complexes prepared, as described above, corresponding to 400 ng IVT-mRNA or pDNA per well, were added in replicates of five. After 4 h of incubation at 37° C. in a humidified 5% CO2-containing atmosphere, the transfection medium was replaced with culture medium supplemented with 10% FBS and 1% (v/v) penicillin/streptomycin. Luciferase activity in 50 μl supernatants from transfected cells was assayed with Metridia luciferase substrate (coelenterazine, Invivogen, France) after 24 h using a FLUOstar microplate reader (BMG Labtech, Germany) and its activity is expressed in relative light units (RLU). In all cases each sample was measured on at least two other occasions to ensure the reproducibility of the data.
The same transfection procedure as described above was applied. Luciferase activity was expressed in RLU. The data are given as the mean±standard deviation (SD) of the mean (n>5) in FIGS. 12a to 12k.
(§3) The concentration of P704 in ternary complexes for treatment of BEAS-2B cells was 50 (w/w) and the concentration of P704 in ternary complexes for treatment of 16HBE cells was 63 (w/w). The N/P ratios of the compounds in ternary complexes were as follows:
BEAS-2B cells: Compound 0 (DL) at 30, compound 1 at 20, compounds 3 and 11 at 15, compounds 4 and 6 at 10, compounds 2 and 9 at 5, compounds 5, 7, 8 and 10 at 2.5.
The same transfection procedure as described above was applied. Luciferase activity was expressed in RLU. […]

[3] = test system: BEAS-2B cells; assay: as above; type: cell-based, human; conditions: for pDNA expression compared with compound 0 containing ternary complexes: day 3
[4] = test system: 16HBE cells; assay: In vitro transfection, Metridia luciferase assay in 16HBE cells; type: cell-based, human; conditions: for pDNA transfection efficiency of P704 ternary complex (in words): MetLuc pDNA, FIG. 14b
Experimental: as §1
as §2, with “data. […]” for “data.”
as §3
16HBE cells: Compound 0 (DL) at 20, compounds 1 and 11 at 15, compounds 2 and 3 at 10, compounds 4, 6, 8, and 9 at 5, compounds 5, 7, and 10 at 2.5.
The same transfection procedure as described above was applied.
The concentration of P704 in ternary complexes was 63 (w/w). The N/P ratio of the compounds in certain ternary complexes was as follows:
16HBE cells: Compound 1, 8, and 11 at 20; compound 0 (DL) and 3 at 10; compound 2 at 7.5; compounds 4, 6, 9, and 10 at 5, compounds 5 and 7 at 2.5. […]

[5] = test system: airway epithelium cells; assay: In vitro transfection study on cultured airway epithelium cells (luciferase, RLU/mg cellular protein); type: cell-based; conditions: ternary complexes formed by P704, a nucleic acid and the compound
Experimental: as §2, with “Luciferase activity in 50 μl supernatants from transfected cells was” left out, “[…]).” for “Germany) and its activity is expressed in relative light units (RLU).”

[6] = normalized: most hydrophobic residue 100, glycine 0, cited from earlier work; for hydrophobicity index At pH 2: from Sereda et al. 1994; for hydrophobicity index At pH 7: from Monera et al. 1995
[7] = MetLuc mRNA, optimum composition
[8] = MetLuc pDNA, P704 ternary complex, day 3, optimum composition

| Compound | hydrophobicity index At pH 2 [6] | hydrophobicity index At pH 7 [6] | further results |
| --- | --- | --- | --- |
| DL-lipoic acid-WLHHHKKLLHHHKKL-GACSERSMNFCG ({Lipoyl(6ξ)}-WLHHHKKLLHHHKKLGACSERSMNFCG; cysteine pairing not given here) [compound 8] | – | – | luciferase expression of ternary complexes with P304 and MetLuc mRNA ([1]; P304 2000 (w/w), high N/P ratio, even higher than compound 9, FIG. 25a): rather high luciferase expression |
| NH2-VKRKKKPKKRRRRKK-CONH2 (H-VKRKKKPKKRRRRKK-NH2) [compound 1] | – | – | IVT-mRNA transfection efficiency relative to P704/compound 0/IVT-mRNA complex [2, 7]: one third; pDNA transfection, share of maximum signal intensity of compound 0 counterpart [3, 8]: 7%; pDNA transfection, share of maximum signal intensity of compound 0 counterpart [1, 8]: half; IVT-mRNA transfection efficiency relative to P704/compound 0/IVT-mRNA complex [4, 7]: one third |
| NH2-VKRKKKPKKRRRRKKWK(R-lipoic acid)-CONH2 (H-VKRKKKPKKRRRRKKWK(R‑lipoic acid)-NH2) [compound 0 (R)] | – | – | transfection efficiencies of ternary complexes with compound 0 (DL) versus compound 0 (R) [5]: similar |
| CSCC[C@H](N)C(=O)O [Methionine (met), Methionine] | 74 | 74 | – |
| CC(C)[C@H](N)C(=O)O [Valine (val), Valine] | 79 | 76 | – |
| CC[C@H](C)[C@H](N)C(=O)O [Isoleucine (ile), Isoleucine] | 100 | 99 | – |
| DL-lipoic acid-WKKKKRRRRRKKKK-GACSERSMNFCG ({Lipoyl(6ξ)}-WKKKKRRRRRKKKKGACSERSMNFCG; cysteine pairing not given here) [compound 4] | – | – | pDNA transfection efficiency of P704 ternary complex (in words) ([2]; optimum N/P): similar |
| N[C@@H](CS)C(=O)O [Cysteine (cys), Cysteine] | 52 | 49 | – |
| NC(=O)C[C@H](N)C(=O)O [Asparagine (asn), Asparagine] | −41 | −28 | – |
| N[C@@H](Cc1ccc(O)cc1)C(=O)O [Tyrosine (tyr), Tyrosine] | 49 | 63 | – |
| DL-lipoic acid-WKKRRRRRRRRRKK-GACSERSMNFCG ({Lipoyl(6ξ)}-WKKRRRRRRRRRKKGACSERSMNFCG; cysteine pairing not given here) [compound 6] | – | – | pDNA transfection efficiency of P704 ternary complex (in words) ([4]; P704 63 (w/w), optimum N/P): overwhelming signals |
| N[C@@H](Cc1ccccc1)C(=O)O [Phenylalanine (phe), Phenylalanine] | 92 | 100 | – |
| N[C@@H](Cc1c[nH]cn1)C(=O)O [Histidine (his), Histidine] | −42 | 8 | – |
| N[C@@H](Cc1c[nH]c2ccccc12)C(=O)O [Tryptophan (trp), Tryptophan] | 84 | 97 | – |
| DL-lipoic acid-WKKKKRRRRRKKKK-GACYGLPHKFCG ({Lipoyl(6ξ)}-WKKKKRRRRRKKKKGACYGLPHKFCG; cysteine pairing not given here) [compound 5] | – | – | pDNA transfection efficiency of P704 ternary complex (in words) ([2]; optimum N/P): similar; pDNA expression compared with compound 0 containing ternary complexes [3]: slightly better |
| NCCCC[C@H](N)C(=O)O [Lysine (lys), Lysine] | −37 | −23 | – |
| O=C(O)CCCCC1CCSS1 (racemic) [compound 2, DL-lipoic acid, reference compound] | – | – | IVT-mRNA transfection efficiency of P704 ternary complex (in words) ([2]; MetLuc mRNA, P704 63 (w/w), optimum N/P, FIG. 17a): rather low transfection efficiency; pDNA transfection efficiency of P704 ternary complex (in words) ([2]; optimum N/P): rather low transfection efficiency; IVT-mRNA transfection efficiency of P704 ternary complex (in words) ([4]; MetLuc mRNA, P704 63 (w/w), optimum N/P, FIG. 17b): rather low transfection efficiency; pDNA transfection efficiency of P704 ternary complex (in words) ([4]; P704 63 (w/w), optimum N/P): rather low transfection efficiency |
| DL-lipoic acid-WKKRRRRRRRRKK-GACYGLPHKFCG ({Lipoyl(6ξ)}-WKKRRRRRRRRKKGACYGLPHKFCG; cysteine pairing not given here) [compound 7] | – | – | pDNA transfection efficiency of P704 ternary complex (in words) ([2]; optimum N/P): similar; pDNA expression compared with compound 0 containing ternary complexes [3]: slightly better |
| C[C@H](N)C(=O)O [Alanine (ala), Alanine] | 47 | 41 | – |
